The text below walks through data of PMC4941420, “A Rational Approach for the Identification of Non-Hydroxamate HDAC6-Selective Inhibitors” (Scientific Reports, 2016).

For data set [1], the system named is HeLa cells. Nature of the data set: Cytotoxicity XTT, HeLa. To be noted: 72 h, mean ± SD of 3 independent experiments in triplicate, read-out: cytotoxic IC50 HeLa. In kind it is cell-based, human. On the procedure:
(§1) HeLa and HEK 293 cells (ATCC CRL-1573) were cultured as described above and seeded into 96-well plates at 400 cells/well. Test and standard compounds were added to plate wells in triplicate (0.05% DMSO in culture medium) in a range of six concentrations. Following 72 h of incubation, […] of an activated XTT solution was added to the cells (1 mg/mL). The absorbance was measured at 450 nm after 2 h incubation at 37 °C. The growth of the compound-treated cells was compared with the growth of vehicle-treated control cells. IC50 values were calculated with GraphPad Prism 6.0.

The subject of data set [2] is HEK 293 cells. Nature of the data set: Cytotoxicity XTT, HEK 293. The data set is classed as cell-based. To be noted: 72 h, mean ± SD of 3 independent experiments in triplicate, read-out: cytotoxic IC50 HEK 293. As for the experimental part: as §1
A general note: Tetrazolium dyes change colour on reduction, which living cells bring about.

Data set [3] addresses T1, HDAC6 (Homo sapiens, UniProt Q9UBN7).
T1 construct: purchased Sigma Aldrich or Reaction Biology Corporation
T1 sequence (Q9UBN7 1-1215): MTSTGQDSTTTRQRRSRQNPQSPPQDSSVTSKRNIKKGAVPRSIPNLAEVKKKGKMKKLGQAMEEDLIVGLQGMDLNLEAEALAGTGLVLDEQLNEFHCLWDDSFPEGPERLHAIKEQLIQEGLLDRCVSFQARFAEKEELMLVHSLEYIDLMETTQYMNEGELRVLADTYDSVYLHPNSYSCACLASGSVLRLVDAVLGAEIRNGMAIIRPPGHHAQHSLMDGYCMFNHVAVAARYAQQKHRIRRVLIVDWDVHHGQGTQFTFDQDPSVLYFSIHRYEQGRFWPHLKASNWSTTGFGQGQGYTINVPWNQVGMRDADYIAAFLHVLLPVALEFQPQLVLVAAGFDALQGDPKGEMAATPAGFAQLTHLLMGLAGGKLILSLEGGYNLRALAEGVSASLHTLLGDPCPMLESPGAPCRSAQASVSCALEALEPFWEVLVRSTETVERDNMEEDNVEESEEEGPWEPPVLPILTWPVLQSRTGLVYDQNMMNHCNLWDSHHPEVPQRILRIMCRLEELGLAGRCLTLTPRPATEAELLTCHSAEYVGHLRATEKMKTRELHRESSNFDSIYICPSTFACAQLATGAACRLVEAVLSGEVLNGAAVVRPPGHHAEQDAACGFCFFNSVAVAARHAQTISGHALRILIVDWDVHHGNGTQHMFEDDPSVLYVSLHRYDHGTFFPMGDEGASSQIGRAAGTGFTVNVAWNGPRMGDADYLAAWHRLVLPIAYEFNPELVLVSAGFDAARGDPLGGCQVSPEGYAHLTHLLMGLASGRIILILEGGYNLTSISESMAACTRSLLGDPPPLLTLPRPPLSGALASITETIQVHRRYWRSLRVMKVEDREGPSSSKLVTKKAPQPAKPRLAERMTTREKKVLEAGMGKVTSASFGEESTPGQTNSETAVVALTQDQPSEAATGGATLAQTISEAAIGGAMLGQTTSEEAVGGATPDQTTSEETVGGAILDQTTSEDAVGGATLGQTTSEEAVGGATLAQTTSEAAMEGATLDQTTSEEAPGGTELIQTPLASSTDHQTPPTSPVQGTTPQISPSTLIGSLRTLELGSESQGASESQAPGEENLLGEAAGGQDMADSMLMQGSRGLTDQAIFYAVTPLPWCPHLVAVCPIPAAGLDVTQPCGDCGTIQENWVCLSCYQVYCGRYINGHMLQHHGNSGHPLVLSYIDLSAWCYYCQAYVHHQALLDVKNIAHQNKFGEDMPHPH
Nature of the data set: In vitro enzymatic assay HDAC6 (Fluor de Lys). The data set is classed as biochemical. To be noted: 100 µM; mean ± SD (n=3).

A short description of data set [4]: Solubility remarks during testing. In kind it is physicochemical. Particulars: tested at 100 µM in HDAC assay buffer.
The test system of data set [5] is α-tubulin acetylation in HeLa cells. Briefly: Acetyl-α-tubulin sandwich ELISA in HeLa cells. The data set is classed as cell-based, human. To be noted: 25 μM, 48 h. On the procedure: The acetyl-α-tubulin sandwich ELISA Kit (Pathscan® #7204, Cell Signalling) was used to determine tubulin acetylation levels, and Western blotting was used to evaluate histone H4 acetylation, both methods applied to lysates of treated and non-treated HeLa cells (ATCC CCL-2). Cells were cultured in DMEM medium, 4.5 g/L glucose, L-glutamine (Invitrogen), supplemented with 10% heat-inactivated fetal bovine serum (FBS, Biowest), 100 units/mL penicillin, and 100 μg/mL streptomycin, and 1% non-essential amino acids (Invitrogen) at 37 °C with 5% CO2. Prior to ELISA experiments, cells were seeded into 6-well plates at 150,000 cells/well and transfected with the HDAC6-GFP construct (pEGFP.N1-HDAC6, Addgene)[58], using the Lipofectamine 2000 reagent (Invitrogen). Cells were then treated with test compounds, standards or vehicle (0.5% DMSO in culture medium) for 48 h. After the incubation time, cells were washed with cold DPBS (Invitrogen) and lysates were obtained by recovering cells in cold lysis buffer provided in the ELISA kit, supplemented with a protease inhibitor tablet (SigmaFast, Sigma Aldrich). Briefly, cells were harvested in DPBS and centrifuged. The cell pellet was suspended in 100 μL lysis buffer, vortexed, and kept on melting ice for 30 min. Lysates were then obtained by recovering the supernatant after a centrifugation step of 10 min at 11,000 g, 4 °C. Protein concentration was determined by fluorimetry using the Qubit protein assay kit (Invitrogen). Cell lysates were tested at 1 mg/mL following the instructions provided by the ELISA kit manufacturer. For the Western blotting, cells were seeded into 100 mm Petri dishes and treated for 6 h. After the incubation time, cells were washed with cold DPBS (Invitrogen) supplemented with a protease inhibitor tablet (Sigma Fast, Sigma Aldrich), and lysates were obtained by recovering cells in 100 μL cold lysis buffer (10 mM Hepes pH 7.9, 1.5 mM MgCl2, 10 mM KCl, 0.5 mM DTT, 1.5 mM PMSF, 0.2M HCl) the same way as described above. […]

A short description of data set [6]: Cytotoxicity XTT, HeLa. The data set is classed as cell-based, human. Particulars: human, HeLa cells, mean ± SD of 3 independent experiments in triplicate, read-out: cytotoxic IC50 HeLa. On the procedure:
as §1

The nature of data set [7]: Cytotoxicity XTT, HEK 293. The data set is classed as cell-based. To be noted: human, HEK 293 cells (ATCC CRL-1573), mean ± SD of 3 independent experiments in triplicate, read-out: cytotoxic IC50 HEK 293. As for the experimental part:
as §1

Data set [8] relates to HDAC6. Particulars: cited from earlier work.

With `CC(/C=C/C(=O)NO)=C\[C@@H](C)C(=O)c1ccc(N(C)C)cc1` [Trichostatin A], the IC50 in data set [1] was 1500 ± 300 nM; in data set [2], 300 ± 20 nM.

Turning to `Cc1cc2ccccc2n2c(SCC(=O)Nc3ccc(S(N)(=O)=O)cc3)nnc12` [AQ-1], the “HDAC6 % of inhibition at 100 µM” value in data set [3] is given as -16.4 ± 9.3%. Moreover, the “solubility remark in HDAC6 screening” value in data set [4] is “Solubility issues”.

Take `CN1CCc2c(c3ccccc3n2Cc2ccc(C(=O)NO)cc2)C1` [Tubastatin A]: in data set [5], the tubulin acetylation entry is given as “able to induce tubulin acetylation”. In addition, the IC50 at 72 h in data set [6] was 11200 ± 400 nM; in data set [7], 2400 ± 600 nM. Moreover, the IC50 in data set [8] was […].

The IC50 is the point on the concentration scale where inhibition reaches its midpoint.
